Assay [1] deals with T1, Recombinant human NK3 (hNK3) receptor (Homo sapiens, UniProt P29371).
T1 construct: expressed in transfected cells
T1 sequence (P29371 1-465): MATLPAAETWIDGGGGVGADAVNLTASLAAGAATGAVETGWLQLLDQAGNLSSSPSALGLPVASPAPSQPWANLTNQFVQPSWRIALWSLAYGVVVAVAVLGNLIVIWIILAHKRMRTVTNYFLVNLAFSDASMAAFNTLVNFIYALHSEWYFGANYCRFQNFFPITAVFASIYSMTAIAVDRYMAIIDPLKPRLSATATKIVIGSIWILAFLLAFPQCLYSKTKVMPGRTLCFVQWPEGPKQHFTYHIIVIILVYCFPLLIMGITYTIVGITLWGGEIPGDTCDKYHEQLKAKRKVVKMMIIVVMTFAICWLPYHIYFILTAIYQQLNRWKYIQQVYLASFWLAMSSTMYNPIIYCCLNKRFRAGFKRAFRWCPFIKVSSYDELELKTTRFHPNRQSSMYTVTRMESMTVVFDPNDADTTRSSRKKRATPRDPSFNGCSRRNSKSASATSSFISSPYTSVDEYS
Description: NK3 receptor binding, [3H]SR142801 displacement, membrane preparations. The essentials:
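hNK3 membranes (~2.5 μg/well) incubated 90 min at room temperature in 50 mM Tris-HCl pH 7.4 with 0.1% BSA, 4 mM MnCl2, 1 μM phosphoramidon. Nonspecific binding defined with 10 μM SB222200; bound [3H]SR142801 separated by filtration on PEI-soaked GF/C filters and counted by scintillation.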

In the next assay the target is human NK1 receptor (Homo sapiens, UniProt P25103). Description: NK1 receptor binding, [3H]substance P displacement, CHO cell membranes.
Setting [2] is: second value of the cell pKi NK1/NK3, hNK3 receptor, [3H]SR142801.
The mark [3] stands for this setting: first value of the cell pKi NK1/NK3, human NK1 receptor, [3H]substance P.

Like-named read-outs stand apart in the source and are kept apart here.

Sequence of human NK1 receptor (P25103 whole entry): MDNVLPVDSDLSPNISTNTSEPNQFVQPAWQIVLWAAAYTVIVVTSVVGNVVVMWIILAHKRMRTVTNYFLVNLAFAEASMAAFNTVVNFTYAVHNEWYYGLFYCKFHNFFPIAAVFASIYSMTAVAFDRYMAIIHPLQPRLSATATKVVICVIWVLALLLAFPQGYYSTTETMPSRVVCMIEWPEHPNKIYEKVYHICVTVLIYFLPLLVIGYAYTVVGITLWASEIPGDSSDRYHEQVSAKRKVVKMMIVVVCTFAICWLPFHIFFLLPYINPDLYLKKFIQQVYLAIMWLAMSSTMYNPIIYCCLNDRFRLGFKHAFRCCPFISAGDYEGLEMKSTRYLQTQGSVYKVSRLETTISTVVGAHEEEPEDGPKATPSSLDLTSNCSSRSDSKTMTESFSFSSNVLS

For `Cc1cc(F)ccc1-c1cc(N2[C@H](CO)CC[C@H]2CO)ncc1N(C)C(=O)C(C)(C)c1cc(C(F)(F)F)cc(C(F)(F)F)c1` [Example 198, (2S,5S)-N-[6-(2,5-Bis-hydroxymethyl-pyrrolidin-1-yl)-4-(4-fluoro-2-methyl-phenyl)-pyridin-3-yl]-2-(3,5-bis-trifluoromethyl-phenyl)-N-methyl-isobutyramide], the Ki in assay [1] (setting [2]) was 1.1 nM; at human NK1 receptor (setting [3]) it was 1.78 nM.
In the same order, the values of `Cc1cc(F)ccc1-c1cc(N2CC[C@@H](O)[C@H]2CO)ncc1N(C)C(=O)C(C)(C)c1cc(C(F)(F)F)cc(C(F)(F)F)c1` [Example 156, (2R,3R)-2-(3,5-Bis-trifluoromethyl-phenyl)-N-[4-(4-fluoro-2-methyl-phenyl)-6-(3-hydroxy-2-hydroxymethyl-pyrrolidin-1-yl)-pyridin-3-yl]-N-methyl-isobutyramide] are 1.58 nM and 1.74 nM.
In the same order, the values of `CN(C(=O)C(C)(C)c1cc(C(F)(F)F)cc(C(F)(F)F)c1)c1cnc(N2CCC[C@H]2CO)cc1-c1ccccc1Cl` [Example 42, (S)-2-(3,5-Bis-trifluoromethyl-phenyl)-N-[4-(2-chloro-phenyl)-6-(2-hydroxymethyl-pyrrolidin-1-yl)-pyridin-3-yl]-N-methyl-isobutyramide] are 0.832 nM and 1.66 nM.
In the same order, the values of `Cc1cc(F)ccc1-c1cc(N2CC[C@H](N(C)S(C)(=O)=O)C2)ncc1N(C)C(=O)C(C)(C)c1cc(C(F)(F)F)cc(C(F)(F)F)c1` [Example 105, (S)-2-(3,5-Bis-trifluoromethyl-phenyl)-N-{4-(4-fluoro-2-methyl-phenyl)-6-[3-(methanesulfonyl-methyl-amino)-pyrrolidin-1-yl]-pyridin-3-yl}-N-methyl-isobutyramide] are 5.25 nM and 1.02 nM.
On to `CN(C(=O)C(C)(C)c1cc(C(F)(F)F)cc(C(F)(F)F)c1)c1cnc(N2C[C@H](O)C[C@H]2CO)cc1-c1cccc(F)c1` [Example 207, (2S,4R)-2-(3,5-Bis-trifluoromethyl-phenyl)-N-[4-(3-fluoro-phenyl)-6-(4-hydroxy-2-hydroxymethyl-pyrrolidin-1-yl)-pyridin-3-yl]-N-methyl-isobutyramide], for which the Ki in assay [1] (second value of the cell NK1/NK3, read-out: pKi NK3 (converted)) is 4.68 nM; on human NK1 receptor (first value of the cell NK1/NK3, read-out: pKi NK1 (converted)), 1.38 nM.
As for `CN(C(=O)C(C)(C)c1cc(C(F)(F)F)cc(C(F)(F)F)c1)c1cnc(N2C[C@@H](O)[C@H](O)C2)cc1-c1ccccc1Cl` [Example 49, (3R,4R)-2-(3,5-Bis-trifluoromethyl-phenyl)-N-[4-(2-chloro-phenyl)-6-(3,4-dihydroxy-pyrrolidin-1-yl)-pyridin-3-yl]-N-methyl-isobutyramide], the results for the Ki (in assay [1] (setting [2]); on human NK1 receptor (setting [3])) were 14.8 nM and 0.479 nM, respectively.
In the same order, the values of `C[C@H](O)[C@H](CO)Nc1cc(-c2ccccc2Cl)c(N(C)C(=O)C(C)(C)c2cc(C(F)(F)F)cc(C(F)(F)F)c2)cn1` [Example 147, (1S,2S)-2-(3,5-Bis-trifluoromethyl-phenyl)-N-[4-(2-chloro-phenyl)-6-(2-hydroxy-1-hydroxymethyl-propylamino)-pyridin-3-yl]-N-methyl-isobutyramide] are 10.5 nM and 0.724 nM.
In the same order, the values of `CN(C(=O)C(C)(C)c1cc(C(F)(F)F)cc(C(F)(F)F)c1)c1cnc(N2C[C@H](O)C[C@H]2CO)cc1-c1ccccc1Br` [Example 129, (2S,4R)-2-(3,5-Bis-trifluoromethyl-phenyl)-N-[4-(2-bromo-phenyl)-6-(4-hydroxy-2-hydroxymethyl-pyrrolidin-1-yl)-pyridin-3-yl]-N-methyl-isobutyramide] are 2.63 nM and 0.851 nM.
As to `Cc1ccccc1-c1cc(N2CCC[C@H]2CO)ncc1N(C)C(=O)C(C)(C)c1cc(Cl)cc(OC(F)F)c1` [Example 36, (S)-2-(3-Chloro-5-difluoromethoxy-phenyl)-N-[6-(2-hydroxymethyl-pyrrolidin-1-yl)-4-o-tolyl-pyridin-3-yl]-N-methyl-isobutyramide], the Ki in assay [1] (setting [2]) was 0.708 nM; at human NK1 receptor (setting [3]), 4.27 nM.

(Values after US8404708B2, “Dual NK1/NK3 receptor antagonists” (Hoffmann-La Roche Inc., priority 2004, dated 2013).)
